Source: the supplement of paper PMC11208160

Experiment: recombinant UMI read abundance after kanamycin selection (control-corrected) (log10(CPM+1)); higher = more efficient recombination; extreme values may be limits of the assay; sequences stand for … in AGTGCAGAGAAAATCGGCCAGTTTTCTCTGCCTGCAGTCCGCATGCCGTGGGACCCCTTGGGTTCTAACCTGTTGCCTAGATTTATGCAGCGGACTGCCTTTCTCCCAAAGTGATAAACCGG…AGGTTGGTTTCACT; site = the 11-nt donor
Summary of the method: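 Sequencing read counts were converted to CPM, averaged over two replicates and scaled by control-derived factors. Results are given as log10(CPM+1). The reads covered the donor–target junction of recombinant UMIs from a pooled Escherichia coli screen of donor and donor-binding-loop pairs for the IS621 bridge recombinase.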
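Further: IS621 bridge recombinase in Escherichia coli cells against a fixed T5 target plasmid.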

Sequence	recombinant UMI read abundance (log10)
TAAAATACATGGACCGGTTTTCCCGGTAATCCGTATTTGCA (site TAAAATACTTG)	0
TAAAATACATGGACCGGTTTTCCCGGTAATCCGTATTTGCA (site TACAATACTTG)	0.953
TAAAATACATGGACCGGTTTTCCCGGTAATCCGTATTTGCA (site TAGAATACTTG)	0
TAAAATACATGGACCGGTTTTCCCGGTAATCCGTATTTGCA (site TATAATACTTG)	0.614
TAAACCGCATGGACCGGTTTTCCCGGTAATCCGTATTTGCG (site TAAACCGCTCG)	1.29
TAAAGACCATGGACCGGTTTTCCCGGTAATCCGTATTTGTA (site TAAAGACCTTA)	0.299
TAAAGACCATGGACCGGTTTTCCCGGTAATCCGTATTTGTA (site TAAAGCCCTTA)	0.624
TAAAGACCATGGACCGGTTTTCCCGGTAATCCGTATTTGTA (site TAAAGGCCTTA)	0.257
TAAAGACCATGGACCGGTTTTCCCGGTAATCCGTATTTGTA (site TAAAGTCCTTA)	0.166
TAAAGAGCATGGACCGGTTTTCCCGGTAATCCGTATTTGGG (site TAAAGAGCTCC)	0.356
TAAAGAGCATGGACCGGTTTTCCCGGTAATCCGTATTTGGG (site TAACGAGCTCC)	0.0368
TAAAGAGCATGGACCGGTTTTCCCGGTAATCCGTATTTGGG (site TAAGGAGCTCC)	0.0278
TAAAGAGCATGGACCGGTTTTCCCGGTAATCCGTATTTGGG (site TAATGAGCTCC)	0.00709
TAAAGCTCATGGACCGGTTTTCCCGGTAATCCGTATTTGTT (site TAAAGCTCTAA)	1.48
TAAAGTCCATGGACCGGTTTTCCCGGTAATCCGTATTTGGA (site TAAAGTCCTTA)	0.0112
TAAAGTCCATGGACCGGTTTTCCCGGTAATCCGTATTTGGA (site TAAAGTCCTTC)	0.231
TAAAGTCCATGGACCGGTTTTCCCGGTAATCCGTATTTGGA (site TAAAGTCCTTG)	0
TAAAGTCCATGGACCGGTTTTCCCGGTAATCCGTATTTGGA (site TAAAGTCCTTT)	0.978
TAAAGTCCATGGACCGGTTTTCCCGGTAATCCGTATTTGTC (site TAAAGTCCTAA)	0.0955
TAAAGTCCATGGACCGGTTTTCCCGGTAATCCGTATTTGTC (site TAAAGTCCTCA)	0.00821
TAAAGTCCATGGACCGGTTTTCCCGGTAATCCGTATTTGTC (site TAAAGTCCTGA)	0.327
TAAAGTCCATGGACCGGTTTTCCCGGTAATCCGTATTTGTC (site TAAAGTCCTTA)	0.00692
TAAAGTCCATGGACCGGTTTTCCCGGTAATCCGTATTTGTT (site TAAAGTCCTAA)	0.293
TAAAGTCCATGGACCGGTTTTCCCGGTAATCCGTATTTGTT (site TAAAGTCCTCA)	0.0132
TAAAGTCCATGGACCGGTTTTCCCGGTAATCCGTATTTGTT (site TAAAGTCCTGA)	0

Sequence	recombinant UMI read abundance (log10)
TAAAGTCCATGGACCGGTTTTCCCGGTAATCCGTATTTGTT (site TAAAGTCCTTA)	0
TAAAGTTCATGGACCGGTTTTCCCGGTAATCCGTATTTGTA (site TAAAGTACTTA)	0.0179
TAAAGTTCATGGACCGGTTTTCCCGGTAATCCGTATTTGTA (site TAAAGTCCTTA)	0.153
TAAAGTTCATGGACCGGTTTTCCCGGTAATCCGTATTTGTA (site TAAAGTGCTTA)	0.00586
TAAAGTTCATGGACCGGTTTTCCCGGTAATCCGTATTTGTA (site TAAAGTTCTTA)	1.59
TAAATAACATGGACCGGTTTTCCCGGTAATCCGTATTTGCT (site TAAATAACTAG)	0
TAAATACCATGGACCGGTTTTCCCGGTAATCCGTATTTGCG (site TAAATACCTCG)	0
TAAATGCCATGGACCGGTTTTCCCGGTAATCCGTATTTGGA (site TAAATGCCTTC)	0.2
TAACACGCATGGACCGGTTTTCCCGGTAATCCGTATTTGAG (site TAACACGCTCT)	1.48
TAACAGACATGGACCGGTTTTCCCGGTAATCCGTATTTGGT (site TAACAGACTAC)	0.99
TAACATTCATGGACCGGTTTTCCCGGTAATCCGTATTTGGG (site TAACATTCTCC)	0.809
TAACCGGCATGGACCGGTTTTCCCGGTAATCCGTATTTGGT (site TAACCGGCTAC)	0.35
TAACGAACATGGACCGGTTTTCCCGGTAATCCGTATTTGAC (site TAACGAACTGT)	2.86
TAACGGCCATGGACCGGTTTTCCCGGTAATCCGTATTTGAA (site TAACGGCCTTT)	0.00367
TAACTACCATGGACCGGTTTTCCCGGTAATCCGTATTTGTT (site TAACTACCTAA)	0.00587
TAACTAGCATGGACCGGTTTTCCCGGTAATCCGTATTTGAA (site TAACTAGCTTT)	1.57
TAACTAGCATGGACCGGTTTTCCCGGTAATCCGTATTTGAA (site TACCTAGCTTT)	0.34
TAACTAGCATGGACCGGTTTTCCCGGTAATCCGTATTTGAA (site TAGCTAGCTTT)	0.00713
TAACTAGCATGGACCGGTTTTCCCGGTAATCCGTATTTGAA (site TATCTAGCTTT)	0
TAACTTACATGGACCGGTTTTCCCGGTAATCCGTATTTGAT (site TAACTTACTAT)	0.731
TAAGATTCATGGACCGGTTTTCCCGGTAATCCGTATTTGTT (site AAAGATTCTAA)	0
TAAGATTCATGGACCGGTTTTCCCGGTAATCCGTATTTGTT (site CAAGATTCTAA)	1.43
TAAGATTCATGGACCGGTTTTCCCGGTAATCCGTATTTGTT (site GAAGATTCTAA)	0
TAAGATTCATGGACCGGTTTTCCCGGTAATCCGTATTTGTT (site TAAGATTCTAA)	2.02
TAAGCAGCATGGACCGGTTTTCCCGGTAATCCGTATTTGGC (site TAAGCAGCTGC)	2.92

Sequence	recombinant UMI read abundance (log10)
TAAGCTGCATGGACCGGTTTTCCCGGTAATCCGTATTTGTG (site TAAGCTGCTCA)	0.65
TAAGCTGCATGGACCGGTTTTCCCGGTAATCCGTATTTGTG (site TCAGCTGCTCA)	0.00238
TAAGCTGCATGGACCGGTTTTCCCGGTAATCCGTATTTGTG (site TGAGCTGCTCA)	0.0127
TAAGCTGCATGGACCGGTTTTCCCGGTAATCCGTATTTGTG (site TTAGCTGCTCA)	0.00901
TAAGGGCCATGGACCGGTTTTCCCGGTAATCCGTATTTGAG (site TAAGGGCCTCT)	0.221
TAAGTATCATGGACCGGTTTTCCCGGTAATCCGTATTTGAC (site CTAGTATCTGT)	1.88
TAAGTATCATGGACCGGTTTTCCCGGTAATCCGTATTTGAC (site TAAGTATCTGT)	3.03
TAATCTACATGGACCGGTTTTCCCGGTAATCCGTATTTGAG (site TAATCTACTCT)	0.521
TAATGAACATGGACCGGTTTTCCCGGTAATCCGTATTTGGG (site TAATGAACTCC)	0.00333
TAATGAACATGGACCGGTTTTCCCGGTAATCCGTATTTGGG (site TAATGACCTCC)	0.0112
TAATGAACATGGACCGGTTTTCCCGGTAATCCGTATTTGGG (site TAATGAGCTCC)	0.0277
TAATGAACATGGACCGGTTTTCCCGGTAATCCGTATTTGGG (site TAATGATCTCC)	0.399
TAATGAGCATGGACCGGTTTTCCCGGTAATCCGTATTTGGA (site TAATGAGCTAC)	0.0122
TAATGAGCATGGACCGGTTTTCCCGGTAATCCGTATTTGGA (site TAATGAGCTCC)	0.0122
TAATGAGCATGGACCGGTTTTCCCGGTAATCCGTATTTGGA (site TAATGAGCTGC)	0
TAATGAGCATGGACCGGTTTTCCCGGTAATCCGTATTTGGA (site TAATGAGCTTC)	0.729
TAATGCGCATGGACCGGTTTTCCCGGTAATCCGTATTTGGG (site TAATGAGCTCC)	0.0175
TAATGCGCATGGACCGGTTTTCCCGGTAATCCGTATTTGGG (site TAATGCGCTCC)	0
TAATGCGCATGGACCGGTTTTCCCGGTAATCCGTATTTGGG (site TAATGGGCTCC)	0.0249
TAATGCGCATGGACCGGTTTTCCCGGTAATCCGTATTTGGG (site TAATGTGCTCC)	0.00404
TAATGGCCATGGACCGGTTTTCCCGGTAATCCGTATTTGCA (site AAATGGCCTTG)	0.00563
TAATGGCCATGGACCGGTTTTCCCGGTAATCCGTATTTGCA (site CAATGGCCTTG)	0.089
TAATGGCCATGGACCGGTTTTCCCGGTAATCCGTATTTGCA (site GAATGGCCTTG)	0.00525
TAATGGCCATGGACCGGTTTTCCCGGTAATCCGTATTTGCA (site TAATGGCCTTG)	0.0063
TAATTCGCATGGACCGGTTTTCCCGGTAATCCGTATTTGTG (site TAATTCGCTCA)	0.0276
